Experimental data published in patent US11149037B2, “Pyrazole MAGL inhibitors” (H. Lundbeck A/S, priority 2017, dated 2021).

How the values were obtained:
[1] = target: FAAH (Homo sapiens (Human), UniProt O00519); assay: In vitro competitive activity-based protein profiling, human proteomes (prefrontal cortex or PC3 cell membrane fractions); assay type: biochemical; details: 1 μM, human proteome; read-out: FAAH % inh. 1 μM (human)
In short: (§1)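 Activity of MAGL and FAAH was quantified from fluorescent gel band intensities. Beforehand, inhibitors at several concentrations competed against subsequent probe labelling (FP-Rh, JW912 or HT-01) in species-matched proteomes, each step 30 min at 37° C.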

[2] = target: MAGL (Homo sapiens (Human), UniProt Q99685); assay: as above; assay type: biochemical; details: 1 μM, human proteome; read-out: MAGL % inh. 1 μM (human)
In short: as §1

[3] = target: T1, FAAH (Mus musculus (Mouse), UniProt O08914); assay: In vitro competitive activity-based protein profiling, mouse proteomes (brain membrane fraction or cell lysates); assay type: biochemical; details: mouse proteome, read-out: FAAH % inh. 1 μM (mouse)
In short: as §1

[4] = target: T2, MAGL (Mus musculus (Mouse), UniProt O35678); assay: as above; assay type: biochemical; details: mouse proteome, read-out: MAGL % inh. 1 μM (mouse)
In short: as §1

[5] = target: T1, FAAH; assay: Mouse brain proteomes from inhibitor treated mice (oral gavage, sacrificed 4 h after administration); assay type: in vivo; details: 5 mg/kg oral gavage
Procedure: (§2) Preparation of Mouse Brain Proteomes from Inhibitor Treated Mice.
(§3) Inhibitors were administered to wild-type C57B1/6J by oral gavage in a vehicle of polyethylene glycol. Each animal was sacrificed 4 h following administration and brain proteomes were prepared and analyzed according to previously established methods (See Niphakis, M. J., et al. (2011) ACS Chem. Neurosci. and Long, J. Z., et al. Nat. Chem. Biol. 5:37-44).

[6] = target: T2, MAGL; assay: as above; assay type: in vivo; details: 5 mg/kg oral gavage
Procedure: as §2, §3

T2 sequence (O35678 whole entry): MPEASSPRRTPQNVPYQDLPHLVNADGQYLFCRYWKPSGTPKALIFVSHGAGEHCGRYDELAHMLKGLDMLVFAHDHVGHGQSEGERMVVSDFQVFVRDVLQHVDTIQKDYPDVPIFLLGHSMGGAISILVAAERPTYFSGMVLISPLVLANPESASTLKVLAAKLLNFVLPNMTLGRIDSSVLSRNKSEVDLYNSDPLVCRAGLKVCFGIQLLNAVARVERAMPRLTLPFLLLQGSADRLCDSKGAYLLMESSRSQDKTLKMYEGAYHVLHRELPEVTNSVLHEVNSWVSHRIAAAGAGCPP
T1 sequence (O08914 whole entry): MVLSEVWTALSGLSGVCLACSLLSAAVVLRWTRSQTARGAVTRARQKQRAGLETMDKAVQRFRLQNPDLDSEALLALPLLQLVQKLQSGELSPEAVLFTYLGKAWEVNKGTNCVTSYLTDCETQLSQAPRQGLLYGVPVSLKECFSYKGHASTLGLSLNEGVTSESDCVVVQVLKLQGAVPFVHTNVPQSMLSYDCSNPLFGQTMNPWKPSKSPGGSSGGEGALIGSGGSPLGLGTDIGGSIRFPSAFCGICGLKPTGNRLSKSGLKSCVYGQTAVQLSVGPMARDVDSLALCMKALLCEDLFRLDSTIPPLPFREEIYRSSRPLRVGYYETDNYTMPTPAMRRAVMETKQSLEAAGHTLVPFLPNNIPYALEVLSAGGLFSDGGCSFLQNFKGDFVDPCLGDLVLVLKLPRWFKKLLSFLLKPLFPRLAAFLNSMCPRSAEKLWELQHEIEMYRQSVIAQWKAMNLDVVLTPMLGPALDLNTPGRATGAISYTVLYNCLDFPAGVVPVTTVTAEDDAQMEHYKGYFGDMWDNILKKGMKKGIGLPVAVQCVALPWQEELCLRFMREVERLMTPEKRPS
Chain of MAGL (Homo sapiens (Human), UniProt Q99685) (Q99685 whole entry): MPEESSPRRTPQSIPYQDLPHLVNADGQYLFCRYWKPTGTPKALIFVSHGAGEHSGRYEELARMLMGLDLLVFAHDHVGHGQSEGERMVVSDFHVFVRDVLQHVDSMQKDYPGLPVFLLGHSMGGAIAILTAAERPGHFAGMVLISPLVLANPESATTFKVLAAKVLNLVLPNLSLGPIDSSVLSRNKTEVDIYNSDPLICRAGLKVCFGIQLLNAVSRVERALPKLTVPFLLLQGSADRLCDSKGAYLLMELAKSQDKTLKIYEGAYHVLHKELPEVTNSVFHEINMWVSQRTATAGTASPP
Chain of FAAH (Homo sapiens (Human), UniProt O00519) (O00519 whole entry): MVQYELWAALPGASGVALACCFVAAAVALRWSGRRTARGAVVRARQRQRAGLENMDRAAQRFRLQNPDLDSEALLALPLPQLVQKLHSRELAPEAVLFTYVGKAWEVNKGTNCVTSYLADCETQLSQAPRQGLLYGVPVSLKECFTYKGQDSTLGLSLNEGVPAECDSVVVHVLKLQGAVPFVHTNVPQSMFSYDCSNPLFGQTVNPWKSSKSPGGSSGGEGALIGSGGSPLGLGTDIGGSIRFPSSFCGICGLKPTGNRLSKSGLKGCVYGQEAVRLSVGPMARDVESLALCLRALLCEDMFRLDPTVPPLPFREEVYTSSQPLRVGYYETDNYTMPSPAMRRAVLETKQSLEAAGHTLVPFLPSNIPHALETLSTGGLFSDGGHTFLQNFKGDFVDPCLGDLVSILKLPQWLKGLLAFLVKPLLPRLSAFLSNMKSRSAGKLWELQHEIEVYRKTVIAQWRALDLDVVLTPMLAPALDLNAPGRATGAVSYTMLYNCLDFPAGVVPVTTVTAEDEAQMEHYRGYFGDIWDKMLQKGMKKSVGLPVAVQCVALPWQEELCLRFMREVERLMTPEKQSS

Row | inhibition at 1 µM [1] [%] | inhibition at 1 µM [2] [%] | inhibition at 1 µM [3] [%] | inhibition at 1 µM [4] [%] | Compound | FAAH % inh. 5 mg/kg (mouse) [5] | MAGL % inh. 5 mg/kg (mouse) [6]
1 | 0 to 25 | > 75 | 0 to 25 | > 75 | CS(=O)(=O)Nc1ccn(C(=O)N2CCC(Oc3ccc(C(F)(F)F)cc3-c3nnco3)CC2)n1 [Example 96, N-(1-(4-(2-(1,3,4-Oxadiazol-2-yl)-4-(trifluoromethyl)phenoxy)piperidine-1-carbonyl)-1H-pyrazol-3-yl)methanesulfonamide] | D (% inhibition is greater than or equal to 0% and less than 25%) | D (% inhibition is greater than or equal to 0% and less than 25%)
2 | 0 to 25 | > 75 | 0 to 25 | > 75 | CS(=O)(=O)Nc1ccn(C(=O)N2CCC(Oc3ccc(C(F)(F)F)cc3-n3cccn3)CC2)n1 [Example 98, N-(1-(4-(2-(1H-Pyrazol-1-yl)-4-(trifluoromethyl)phenoxy)piperidine-1-carbonyl)-1H-pyrazol-3-yl)methanesulfonamide] | D (% inhibition is greater than or equal to 0% and less than 25%) | D (% inhibition is greater than or equal to 0% and less than 25%)
3 | 0 to 25 | > 75 | 0 to 25 | > 75 | CC(=O)N(Cc1ccc(C(F)(F)F)cc1N1CCCC1)C1(C)CCN(C(=O)n2ccc(NS(C)(=O)=O)n2)CC1 [Example 103, N-(4-Methyl-1-(3-(methylsulfonamido)-1H-pyrazole-1-carbonyl)piperidin-4-yl)-N-(2-(pyrrolidin-1-yl)-4-(trifluoromethyl)benzyl)acetamide] | D (% inhibition is greater than or equal to 0% and less than 25%) | D (% inhibition is greater than or equal to 0% and less than 25%)
4 | 0 to 25 | > 75 | 0 to 25 | > 75 | CN(Cc1ccc(C(F)(F)F)cc1N1CCN(C(=O)CO)CC1)C1(C)CCN(C(=O)n2ccc(NS(C)(=O)=O)n2)CC1 [Example 104, N-(1-(4-((2-(4-(2-Hydroxyacetyl)piperazin-1-yl)-4-(trifluoromethyl)benzyl)(methyl)amino)-4-methylpiperidine-1-carbonyl)-1H-pyrazol-3-yl)methanesulfonamide] | D (% inhibition is greater than or equal to 0% and less than 25%) | D (% inhibition is greater than or equal to 0% and less than 25%)
5 | 0 to 25 | > 75 | 0 to 25 | > 75 | CC(=O)Nc1ccn(C(=O)N2CCN(Cc3ccc(Cl)cc3OCCCC(=O)O)CC2)n1 [Example 106, 4-(2-((4-(3-Acetamido-1H-pyrazole-1-carbonyl)piperazin-1-yl)methyl)-5-chlorophenoxy)butanoic acid] | D (% inhibition is greater than or equal to 0% and less than 25%) | D (% inhibition is greater than or equal to 0% and less than 25%)
6 | 0 to 25 | > 75 | 0 to 25 | > 75 | CC(=O)Nc1ccn(C(=O)N2CCN(Cc3ccc(Cl)cc3NCC(=O)O)CC2)n1 [Example 108, (2-((4-(3-Acetamido-1H-pyrazole-1-carbonyl)piperazin-1-yl)methyl)-5-chlorophenyl)glycine] | D (% inhibition is greater than or equal to 0% and less than 25%) | D (% inhibition is greater than or equal to 0% and less than 25%)
7 | 25 to 50 | > 75 | > 75 | > 75 | CC(=O)Nc1ccn(C(=O)N2CC3CN(Cc4cccc(C(F)(F)F)c4)CC3C2)n1 (stereo not drawn) [Example 112, N-(1-(5-(3-(Trifluoromethyl)benzyl)octahydropyrrolo[3,4-c]pyrrole-2-carbonyl)-1H-pyrazol-3-yl)acetamide] | A (% inhibition is greater than or equal to 75%) | A (% inhibition is greater than or equal to 75%)
